# According to US11357232B2, “Methods of improving soil health, growth and vigor of perennial grass communities” (Edaphix, LLC, priority 2013, dated 2022):
# What was measured:
# French marigold = conditions: in vivo; cited from earlier work
# invasive plant species = test: Hypothetical dose-response testing of invasive species on a rangeland site (Example 21); type: in vivo; conditions: for biomass reduction: zinc-sensitive invasive species
# Protocol: In this example, a rangeland site has become colonized by three invasive species. From dose-response testing it can be determined that 2 of the invasive species can be controlled by boron fertilization while the third is tolerant of boron, but not zinc. Of the two boron-sensitive invasive plant species, one is intolerant to a soil solution level of 3 mg boron per liter, while the other is sensitive to 7 milligrams per liter.
# perennial grass = test: Rangeland site five-year study, surface liquid boron applications (Example 4); type: in vivo; conditions: treated area
# [1] = test system: bluebunch wheatgrass (Pseudoroegenaria spicata); test: Greenhouse pot study watered with boron solutions; conditions: watered 3 times in final 2 weeks
# Protocol: (§5) In a greenhouse pot study Kentucky bluegrass, bluebunch wheatgrass, cheatgrass, dandelion and spotted knapweed were grown from seed in potting soil for a period of approximately 26 weeks. Plants were watered with tap water for the first 24 weeks and then 3 times with boron solutions during the final 2 weeks of the study. Boron concentrations used were 5, 10, 25 and 50 mg B/L in addition to a tap water treatment and a commercial plant fertilizer solution.
# [2] = test system: perennial grass (several species); test: Field trial of boron fertilization in existing perennial grass communities near Belgrade, Mont.; type: in vivo; conditions: over 5 year period after a single application of boron fertilizer; increased from 42%
# Protocol: (§1) Field trials were established in existing perennial grass communities near Belgrade, Mont., with high levels of cheatgrass and dandelion invasion into existing perennial grasses to examine use of boron (elemental symbol: B) fertilization for weed control. Minute amounts of boron, in doses as low as 5 mg B/L (soluble) or 2-3 lbs B (dry) active ingredient per acre, were applied to the plots.
# (§2) Over the same period of time dandelion cover decreased from a mean of 59% to 15%, and cheatgrass cover decreased from a mean of 47% to 1%, while perennial grass cover increased from 42% to 71%.
# (§3) Formulation D, Using the boron-containing compound Na2B4O7.10 H20, the 0.5 mg/L soil concentration applied in the field experiment described in Example 1 was attained by adding 2.55 grams per 100 square foot. The 50 mg/L soil concentration was attained by adding 255 grams per 100 square feet. These concentrations were applied either dry or by dissolving the boron-containing compound in water and then applied as a liquid to field plots.
# [3] = test system: cheatgrass (Bromus tectorum); test: as above; type: in vivo
# Protocol: as §1, §2, §3
# [4] = test system: dandelion (Taraxacum officinale); test: as above; type: in vivo; conditions: over 5 year period after a single application of boron fertilizer; decreased from a mean of 59%
# Protocol: as §1, §2, §3
# cheatgrass seed [5] = test: Greenhouse petri dish cheatgrass seed germination experiment; type: in vivo, Bromus tectorum
# Protocol: Greenhouse petri dish experiments were completed to evaluate the effect of minute concentrations of boron on cheatgrass seed germination. Treatment concentrations (in addition to a zero treatment control) ranged from 10 to 50 mg B/L dissolved in distilled water. […] A follow-up experiment, essentially repeating the previously described petri dish experiment, with inclusion of a treatment rate as low as 5 mg/L, was completed. It was observed that cheatgrass seeds germinated at the 5 mg/L concentration, with death of the seedlings occurring within 7 days of germination (data not shown).
# cheatgrass seed [6] = test: Benchtop seed germination in covered petri dishes with boron solutions (Example 8); type: in vivo, Bromus tectorum; conditions: boron 5 to 50 mg/L; 20 seeds; ten days after treatment
# Protocol: Germination percentage of cheatgrass, dandelion, spotted knapweed and Kentucky bluegrass seed was measured ten (10) days after treatment with solutions of increasing boron concentration (FIG. 8). Cheatgrass appeared most sensitive to boron solution resulting in essentially 100% death of 20 cheatgrass seeds in covered petri dishes, when treated with solutions with boron concentration ranging from 5 to 50 mg/L. Control treatment using tap water successful germination percentage exceeded 56%.
# [7] = test system: Kentucky bluegrass (Poa pratensis); test: Greenhouse pot study watered with boron solutions; type: in vivo; conditions: increasing boron concentrations
# Description: (§4) Greenhouse pot irrigation study, Bozeman, Mont. (FIG. 6).
# [8] = test system: cheatgrass (Bromus tectorum); test: Greenhouse pot study watered with boron solutions; type: in vivo; conditions: increasing boron concentrations
# Description: as §4
# [9] = test system: dandelion (Taraxacum officinale); test: Greenhouse pot study watered with boron solutions; type: in vivo
# Description: as §4
# [10] = test system: spotted knapweed (Centaurea maculosa); test: Greenhouse pot study watered with boron solutions; type: in vivo
# Description: as §4
# [11] = test system: cheatgrass, dandelion, spotted knapweed and Kentucky bluegrass seed; test: Benchtop seed germination in covered petri dishes with boron solutions (Example 8); type: in vivo; conditions: boron concentrations reached 25 mg/L; ten days after treatment
# Protocol: Germination percentage of cheatgrass, dandelion, spotted knapweed and Kentucky bluegrass seed was measured ten (10) days after treatment with solutions of increasing boron concentration (FIG. 8).
# [12] = test system: bluebunch wheatgrass (Pseudoroegenaria spicata); conditions: in vivo
# Protocol: as §5
# [13] = test system: cheatgrass (Bromus tectorum); test: Cheatgrass-affected rangeland site two-year study, surface liquid boron applications (Example 5); type: in vivo; conditions: treated rangeland site
# Description: At a cheatgrass-affected rangeland site plant cover over a two-year study period is shown in response to water soluble soil boron concentrations resulting from surface liquid boron applications. Perennial grass cover in the treated rangeland site was increased to between 60 and 70 percent cover while cheatgrass cover decreased and was less than 3% (FIG. 5A) while adjacent untreated rangeland had less perennial grass cover and more cheatgrass after 2 years. (Soil sampling of the 0-6 inch depth was performed annually over a five year period to determine the water soluble boron concentrations both in the treated and untreated areas (FIG. 5B). Transects were used to measure plant cover annually at sites co-located with soil sampling.
# humans = conditions: U.S. EPA, 2005 carcinogen assessment guidelines; cited from earlier work
# native perennial grasses = conditions: in vivo
# Description: (§6) The prevalence of various invasive species including cheatgrass, dandelions, and perennial noxious weeds (forbs) was observed and correlated with soil copper contamination levels measured at various sites.
# dandelions = test: Plant community response at Anaconda Smelter Superfund site; type: in vivo; conditions: where moderate to high levels of water soluble copper and zinc are measured in the soil
# [14] = test system: invasive species including cheatgrass, dandelions, and perennial noxious weeds; test: Plant community survey in area contaminated with copper from a copper smelter (Example 22); type: in vivo; conditions: soil copper contamination levels measured at various sites
# Description: as §6
# spotted knapweed = test: Plant community response at Anaconda Smelter Superfund site; type: in vivo; conditions: gradient of water soluble copper and zinc in soil
# [15] = test system: seed geranium (Pelargonium x hortorum); conditions: in combination with nitrogen, phosphorus, and potassium; cited from earlier work
# chlorophyllitic plants [16] = test: Photosynthetic disruption by glyphosate; type: in vivo
# Protocol: Extensive research has documented that plants are often sensitive to relatively minute concentrations or exposures to unique synthetic compounds or combinations of naturally occurring elements, including micro-nutrients. For example, glyphosate (aka ROUNDUP®, a synthetic Monsanto product) is effective at causing photosynthetic disruption in chlorophyllitic plants at an application rate of as little as 0.75 pounds active ingredient per acre, which equates to only approximately 8 mg/square foot of application, equivalent to approximately 14 ppm application rate. The American Phytopathological Society (APS) reported that micronutrients are generally toxic when present in high amounts, although ‘high concentrations’ are not clearly defined, and little toxicity have been reported at exceptionally low micro-nutrient concentrations. This occurrence is known as micro-nutrient toxicity syndrome (MTS). […] In addition, plants can vary considerably from species to species in their susceptibility to nutrient toxicities. For example, Lee and others (1996) reported inducing seed geranium (Pelargonium x hortorum) micronutrient toxicity symptoms by applying nutrient solutions containing 0.5 mg/L B, Cu, or Zn, or as little as 0.25 mg/L Mo, in combination with nitrogen, phosphorus, and potassium. […]
# chlorophyllitic plants [17] = conditions: as little as; cited from earlier work
# [18] = increasing boron concentrations
# [19] = lowest boron solution concentration used, 5 mg B/L, watered 3 times in final 2 weeks
molecule,measurement,setting,value
[Mn+2] [manganese],concentration inducing micro-nutrient toxicity,French marigold,1000 ng/mL
boron,concentration inducing micro-nutrient toxicity,French marigold,500 ng/mL
same,soil solution level to which invasive species is intolerant,invasive plant species; first boron-sensitive invasive species,3 mg boron per liter
same,soil solution level to which invasive species is sensitive,invasive plant species; second boron-sensitive invasive species,7 milligrams per liter
same,perennial grass densities,perennial grass,increase over time
same,tolerated boron concentration,[1],≥ 50 mg B/L
same,perennial grass cover,[2],71%
same,emerging or mature cheatgrass plants in plots,"[3]; following growing seasons, doses as low as 5 mg B/L or 2-3 lbs B per acre",near-total absence
same,mean cheatgrass cover,"[3]; over 5 year period after a single application of boron fertilizer, decreased from a mean of 47%",1%
same,mean dandelion cover,[4],15%
same,cheatgrass seed germination (observation),"cheatgrass seed [5]; 5 mg/L, follow-up experiment",germinated
same,"death of seedlings, time after germination","cheatgrass seed [5]; 5 mg/L, follow-up experiment",≤ 7 days
same,cheatgrass seed germination,"cheatgrass seed [5]; 10 to 50 mg B/L in distilled water, after 14 days",zero
same,cheatgrass seed germination,"cheatgrass seed [5]; boron solution 10 mg/L, 14 days post treatment (FIG. 2B)",0%
same,death of cheatgrass seeds,cheatgrass seed [6],~100%
same,plant health index (color and vigor) response,[7],declined in vigor
same,plant health index (color and vigor) response,[8],declined in vigor
same,plant health index (color and vigor) response,[9]; [18],declined in vigor
same,phytotoxic response,[9]; [19],marked phytotoxicity
same,plant health index (color and vigor) response,[10]; [18],declined in vigor
same,rate of decline in plant health compared with other species,[10]; increasing solution boron concentration,most rapid decline in plant health
same,phytotoxic response,[10]; [19],marked phytotoxicity
same,germination of any species,[11],Very little germination
same,plant health index (color and vigor) response,[12],little change in plant health
same,cheatgrass cover,[13],less than 3%
[Mo] [molybdenum],concentration inducing micro-nutrient toxicity,French marigold,5000 ng/mL
borate salts,carcinogenicity classification,humans,not likely to be carcinogenic to humans
[Cu] [copper],tolerance of native perennial grasses to soil copper,native perennial grasses,tolerate higher copper soil levels
same,concentration inducing micro-nutrient toxicity,French marigold,4000 ng/mL
same,occurrence of dandelions,dandelions,not found
same,occurrence of invasive species versus soil copper,[14],primarily observed at lower copper contamination sites
same,occurrence of spotted knapweed,spotted knapweed,found growing in soils with low to high levels
[Zn] [zinc],biomass reduction,invasive plant species; 0.4 mg zinc per liter,38%
same,biomass reduction,invasive plant species; 0.9 milligrams per liter,89%
same,occurrence of dandelions,dandelions,not found
same,nutrient solution concentration inducing micronutrient toxicity symptoms,[15],0.5 mg/L
same,occurrence of spotted knapweed,spotted knapweed,found growing in soils with low to high levels
O=C(O)CNCP(=O)(O)O [glyphosate],"effective application rate, equivalent per area",chlorophyllitic plants [16]; equates to 0.75 pounds active ingredient per acre,approximately 8 mg/square foot
same,"effective application rate, equivalent",chlorophyllitic plants [16]; equivalent to 0.75 pounds active ingredient per acre,approximately 14 ppm
same,application rate effective at causing photosynthetic disruption,chlorophyllitic plants [17],0.75 pounds active ingredient per acre
